From patent US6878742B2, “Heterocyclic sulfonamide inhibitors of beta amyloid production” (Wyeth, priority 2000, dated 2005) come the findings set out here.

Structures are written as SMILES. Values joined by “and” are separate entries in the source; they are usually repeats but may differ in a detail not shown here. Equal values may be shown once.

The assay deals with amyloid precursor protein (APP) proteolysis. Kind of assay: Repressor Release Assay (RRA). The format is cell-based. As to conditions: luciferase activity over diluent control. The essentials: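 CHO-K1 cells grown in DMEM with 10% fetal bovine serum were transiently co-transfected with pRSVO-luc and APP-lacI constructs via Lipofectamine Plus, plated into opaque 96-well plates, and exposed to diluted compound in duplicate for 36-48 hours at 37° C. LucLite luciferase signal was read on a TopCount and expressed as fold increase in relative light units over Hepes/DMSO diluent control.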

Where [1] appears, read: Conc 20 μg/mL, read-out: APPI Fold Increase.
Where [2] appears, read: Conc 10 μg/mL, read-out: APPI Fold Increase.

On to `CC[C@H](C)[C@@H](CO)N(Cc1cccc(Cl)c1)S(=O)(=O)c1ccc(Cl)s1` [Example 88, 5-chloro-N-(3-chlorobenzyl)-N-[(1S,2S)-1-(hydroxymethyl)-2-methylbutyl]thiophene-2-sulfonamide], for which the fold induction at 20 µg/mL under setting [1] worked out at 4.9.
Same read-out and setting: the result for `O=S(=O)(N[C@H](CO)c1ccccc1)c1ccc(Cl)s1` [Example 89, 5-Chloro-N-[(S)-2-hydroxy-1-phenylethyl]thiophene-2-sulfonamide] reads 2.3.
With `CC(C)CC(CO)NS(=O)(=O)c1ccc(Cl)s1` (stereo not shown) [Example 90], the “APPI Fold Increase” value is, setting by setting: (Conc 3 μg/mL) 1.74 fold; (Conc 10 μg/mL) 3.82 fold; (Conc 20 μg/mL) 3.6 fold.
As for `CC(C)(CO)NS(=O)(=O)c1ccc(Cl)s1` [Example 92, 5-chloro-N-(2-hydroxy-1,1-dimethylethyl)thiophene-2-sulfonamide], under setting [1], the fold induction at 20 µg/mL was 1.5.
Turning to `CCC(CO)(CO)NS(=O)(=O)c1ccc(Cl)s1` [Example 93, N-[1,1-bis(hydroxymethyl)propyl]-5-chlorothiophene-2-sulfonamide], the fold induction at 20 µg/mL under setting [1] was found to be 2.
As to `O=S(=O)(NC1(CO)CCCC1)c1ccc(Cl)s1` [Example 94], the “APPI Fold Increase” value (Conc 10 μg/mL) is given as 2.4 fold.
Same read-out and setting: the result for `O=S(=O)(N[C@H](CO)CC1CCCCC1)c1ccc(Cl)s1` [Example 95] reads 1.9 fold.
As to `O=S(=O)(N[C@H](CO)Cc1ccccc1)c1ccc(Cl)s1` [Example 96, N-[(S)-1-benzyl-2-hydroxyethyl]-5-chlorothiophene-2-sulfonamide], under setting [1], the fold induction at 20 µg/mL came out at 1.5.
On to `CC(C)(C)[C@@H](CO)NS(=O)(=O)c1ccc(Cl)s1` [Example 98], for which the “APPI Fold Increase” value (Conc 10 μg/mL) was found to be 2.43 fold.
As to `O=[N+]([O-])c1ccc([C@@H](O)[C@@H](CO)NS(=O)(=O)c2ccc(Cl)s2)cc1` [Example 99, 5-chloro-N-[(R,R)-2-hydroxy-1-(hydroxymethyl)-2-(4-nitrophenyl)ethyl]thiophene-2-sulfonamide], the fold induction at 20 µg/mL under setting [1] came to 1.5.
As to `CC[C@@H](CO)NS(=O)(=O)c1ccc(Cl)s1` [Example 100, 5-chloro-N-[(S)-1-(hydroxymethyl)propyl]thiophene-2-sulfonamide], the fold induction at 20 µg/mL under setting [1] came to 1.5.
Still for that read-out and setting: in the case of `O=S(=O)(N[C@H](CO)CSCc1ccccc1)c1ccc(Cl)s1` [Example 101, N-[R-2-(benzylthio)-1-(hydroxymethyl)ethyl]-5-chlorothiophene-2-sulfonamide] it was 2.7; in that of `C[C@H](OCc1ccccc1)[C@@H](CO)NS(=O)(=O)c1ccc(Cl)s1` [Example 102, N-[(R,S)-2-(benzyloxy)-1-(hydroxymethyl)propyl]-5-chlorothiophene-2-sulfonamide], 1.6.
Same read-out and setting: the result for `C[C@@H](O)[C@@H](CO)NS(=O)(=O)c1ccc(Cl)s1` [Example 103, 5-chloro-N-[(R,R)-2-hydroxy-1-(hydroxymethyl)propyl]thiophene-2-sulfonamide] reads 2.3.
On the same count and under the same terms, the result for `O=S(=O)(N[C@H](CO)c1ccccc1)c1ccc(Br)s1` [Example 104, 5-bromo-N-[(S)-2-hydroxy-1-phenylethyl]thiophene-2-sulfonamide] reads 2.5.
Take `CC(C)CC(CO)NS(=O)(=O)c1ccc(Br)s1` (stereo not shown) [Example 105]: the “APPI Fold Increase” value (Conc 1 μg/mL) is recorded as 1.57 fold; the “APPI Fold Increase” value (Conc 3 μg/mL) is listed as 2.23 fold; the “APPI Fold Increase” value (Conc 10 μg/mL) is given as 3.93 fold; the “APPI Fold Increase” value (Conc 20 μg/mL) is 2.4 fold and 1.5 fold.
As for `CC(C)(CO)NS(=O)(=O)c1ccc(Br)s1` [Example 107, 5-bromo-N-(2-hydroxy-1,1-dimethylethyl)thiophene-2-sulfonamide], the fold induction at 20 µg/mL under setting [1] is 1.5.
Still for that read-out and setting: the result for `CCC(CO)(CO)NS(=O)(=O)c1ccc(Br)s1` [Example 108, N-[1,1-bis(hydroxymethyl)propyl]-5-bromothiophene-2-sulfonamide] reads 2.
With `O=S(=O)(NC1(CO)CCCC1)c1ccc(Br)s1` [Example 109], the “APPI Fold Increase” value by setting is: (Conc 3 μg/mL) 1.8 fold; (Conc 10 μg/mL) 2 fold.
In the case of `O=S(=O)(N[C@H](CO)CC1CCCCC1)c1ccc(Br)s1` [Example 110], the “APPI Fold Increase” value is 1.71 fold (Conc 10 μg/mL); 2.9 fold and 2.3 fold and 3.6 fold (Conc 20 μg/mL).
`CSCC[C@@H](CO)NS(=O)(=O)c1ccc(Br)s1` [Example 111, 5-bromo-N-[(S)-1-(hydroxymethyl)-3-(methylthio)propyl]thiophene-2-sulfonamide]: the fold induction at 20 µg/mL under setting [1] is 1.8.
As to `CC(C)(C)[C@@H](CO)NS(=O)(=O)c1ccc(Br)s1` [Example 113], the “APPI Fold Increase” value (Conc 10 μg/mL) stood at 2.86 fold.
In the case of `O=S(=O)(N[C@H](CO)CSCc1ccccc1)c1ccc(Br)s1` [Example 114, N-[R-2-(benzylthio)-1-(hydroxymethyl)ethyl]-5-bromothiophene-2-sulfonamide], under setting [1], the fold induction at 20 µg/mL turned out to be 1.8.
With `Cc1cccc(CSC[C@@H](CO)NS(=O)(=O)c2ccc(Br)s2)c1` [Example 115, 5-bromo-N-(R-2-hydroxy-1-{[(3-methylbenzyl)thio]methyl}ethyl)thiophene-2-sulfonamide], the fold induction at 20 µg/mL under setting [1] came out at 4.4.
Same read-out and setting: the result for `O=S(=O)(N[C@H](CO)Cc1ccc(OCc2ccccc2)cc1)c1ccc(Br)s1` [Example 116, N-{(S)-1-[4-(benzyloxy)benzyl]-2-hydroxyethyl}-5-bromothiophene-2-sulfonamide] reads 2.2.
Same read-out and setting: the result for `C[C@@H](O)[C@@H](CO)NS(=O)(=O)c1ccc(Br)s1` [Example 117, 5-bromo-N-[(R,R)-2-hydroxy-1-(hydroxymethyl)propyl]thiophene-2-sulfonamide] reads 2.6; that for `CC[C@H](C)[C@@H](C=O)NS(=O)(=O)c1ccc(Cl)s1` [Example 118, 5-Chloro-N-[(S,S)-1-formyl-2-methylbutyl]thiophene-2 sulfonamide], 4.8.
With `CC[C@H](C)[C@H](NS(=O)(=O)c1ccc(Cl)s1)C(C)O` (stereo partly drawn) [Example 119, 5-Chloro-N-[(S,S)-1-(1-hydroxyethyl)-2-methylbutyl]thiophene-2-sulfonamide], the fold induction at 0.3 µg/mL (Conc 0.3 μg/mL, read-out: APPI Fold Increase) turned out to be 1.54. Moreover, the fold induction at 3 µg/mL (Conc 3 μg/mL, read-out: APPI Fold Increase) came to 2.49. Under setting [2], the fold induction at 10 µg/mL stood at 4.1.
Take `C=CC(O)[C@@H](NS(=O)(=O)c1ccc(Cl)s1)[C@@H](C)CC` (stereo partly drawn) [Example 127, 5-chloro-N-{(S)-2-hydroxy-1-[(S)-1-methylpropyl]but-3-enyl}thiophene-2-sulfonamide]: under setting [2], the fold induction at 10 µg/mL is 4.27.
The same measure, in the same setting: the result for `CC[C@H](C)[C@H](NS(=O)(=O)c1ccc(Cl)s1)C(O)c1ccc(F)cc1` (stereo partly drawn) [Example 130, 5-chloro-N-{(S,S)-1-[(4-fluorophenyl)(hydroxy)methyl]-2-methylbutyl}thiophene-2-sulfonamide] reads 1.85; that for `CC[C@H](C)[C@H](NS(=O)(=O)c1ccc(Cl)s1)C(O)c1ccc(Cl)cc1` (stereo partly drawn) [Example 131, 5-chloro-N-{(S,S)-1-[(4-chlorophenyl)(hydroxy)methyl]-2-methylbutyl}thiophene-2-sulfonamide], 3.64.
The same measure, in the same setting: in the case of `CC[C@H](C)[C@H](NS(=O)(=O)c1ccc(Cl)s1)C(O)C=C(C)C` (stereo partly drawn) [Example 132, 5-chloro-N-{(S)-2-hydroxy-4-methyl-1-[(S)-1-methylpropyl]pent-3-enyl}thiophene-2-sulfonamide] it was 1.68; in that of `CC[C@H](C)[C@H](NS(=O)(=O)c1ccc(Cl)s1)C(O)c1ccc(OC)cc1` (stereo partly drawn) [Example 134, 5-chloro-N-{(S,S)-1-[hydroxy(4-methoxyphenyl)methyl]-2-methylbutyl}thiophene-2-sulfonamide], 2.42; in that of `CC[C@H](C)[C@H](NS(=O)(=O)c1ccc(Cl)s1)C(O)CCC1OCCCO1` (stereo partly drawn) [Example 136, 5-chloro-N-{(S)-4-(1,3-dioxan-2-yl)-2-hydroxy-1-[(S)-1-methylpropyl]butyl}thiophene-2-sulfonamide], 2.13.
The same measure, in the same setting: in the case of `C=CCCC(O)[C@@H](NS(=O)(=O)c1ccc(Cl)s1)[C@@H](C)CC` (stereo partly drawn) [Example 137, 5-chloro-N-{(S)-2-hydroxy-1-[(S)-1-methylpropyl]hex-5-enyl}thiophene-2-sulfonamide] it was 1.96.
On to `CC[C@H](C)[C@H](NS(=O)(=O)c1ccc(Cl)s1)C(O)c1ccc(SC)cc1` (stereo partly drawn) [Example 138, 5-chloro-N-((S,S)-1-{hydroxy[4-(methylthio)phenyl]methyl}-2-methylbutyl)thiophene-2-sulfonamide], for which, under setting [2], the fold induction at 10 µg/mL was 3.54.
Still for that read-out and setting: in the case of `CC[C@H](C)[C@H](NS(=O)(=O)c1ccc(Cl)s1)C(O)c1ccc(N(C)C)cc1` (stereo partly drawn) [Example 139, 5-chloro-N-{(S,S)-1-[[4-(dimethylamino)phenyl](hydroxy)methyl]-2-methylbutyl}thiophene-2-sulfonamide] it was 3.97; in that of `CC[C@H](C)[C@H](NS(=O)(=O)c1cccs1)C(O)C1CCCC1` (stereo partly drawn) [Example 140, N-{(S,S)-1-[cyclopentyl(hydroxy)methyl]-2-methylbutyl}thiophene-2-sulfonamide], 2.57.
Still for that read-out and setting: the result for `CCCCCCC(O)[C@@H](NS(=O)(=O)c1cccs1)[C@@H](C)CC` (stereo partly drawn) [Example 141, N-{(S)-2-hydroxy-1-[(S)-1-methylpropyl]octyl}thiophene-2-sulfonamide] reads 4.2; that for `CCCCCC(O)[C@@H](NS(=O)(=O)c1cccs1)[C@@H](C)CC` (stereo partly drawn) [Example 142, N-{(S)-2-hydroxy-1-[(S)-1-methylpropyl]heptyl}thiophene-2-sulfonamide], 3.59.
